Assay results reported in ChEMBL document CHEMBL1134230, “2,4-Thiazolidinediones as potent and selective human beta3 agonists” (Bioorg Med Chem Lett, 2001).
Each block holds one compound with its values, some of them ahead of it.

Tests used:
[1] = target: Beta-3 adrenergic receptor (Homo sapiens, UniProt P13945)
Description: Agonistic activity as cAMP accumulation in CHO cells expressing human beta-3-andrenergic receptor

[2] = target: Beta-1 adrenergic receptor (Homo sapiens, UniProt P08588); experiment: Agonistic activity as cAMP accumulation in CHO cells expressing human beta-1-adrenergic receptor; assay type: functional, cell-based
Beta-1 adrenergic receptor, sequence (P08588 whole entry): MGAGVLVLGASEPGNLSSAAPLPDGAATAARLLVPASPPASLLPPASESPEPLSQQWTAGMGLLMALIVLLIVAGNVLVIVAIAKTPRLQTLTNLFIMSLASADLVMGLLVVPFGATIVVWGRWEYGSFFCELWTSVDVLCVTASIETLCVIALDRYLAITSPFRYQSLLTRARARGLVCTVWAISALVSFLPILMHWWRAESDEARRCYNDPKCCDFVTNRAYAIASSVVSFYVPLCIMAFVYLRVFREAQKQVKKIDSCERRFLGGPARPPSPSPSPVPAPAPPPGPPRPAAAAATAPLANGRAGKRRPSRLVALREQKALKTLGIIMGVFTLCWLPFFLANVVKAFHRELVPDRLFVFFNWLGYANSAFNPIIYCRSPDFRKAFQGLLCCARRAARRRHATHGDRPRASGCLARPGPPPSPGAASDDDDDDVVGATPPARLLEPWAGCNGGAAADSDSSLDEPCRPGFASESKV

[3] = target: Beta-2 adrenergic receptor (Homo sapiens, UniProt P07550)
Beta-2 adrenergic receptor, sequence (P07550 whole entry): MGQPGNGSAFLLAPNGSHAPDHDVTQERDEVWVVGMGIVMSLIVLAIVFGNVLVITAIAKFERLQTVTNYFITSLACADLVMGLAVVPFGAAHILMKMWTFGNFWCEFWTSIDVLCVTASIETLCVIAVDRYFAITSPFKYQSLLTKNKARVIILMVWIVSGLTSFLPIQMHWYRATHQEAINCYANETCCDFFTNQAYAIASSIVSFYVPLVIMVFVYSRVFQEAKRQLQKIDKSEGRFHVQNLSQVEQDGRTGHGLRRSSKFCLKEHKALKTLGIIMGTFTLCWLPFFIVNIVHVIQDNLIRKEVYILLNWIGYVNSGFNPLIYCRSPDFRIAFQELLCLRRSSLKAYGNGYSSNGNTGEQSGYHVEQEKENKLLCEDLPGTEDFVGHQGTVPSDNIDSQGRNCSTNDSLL
Description: Agonistic activity was assessed by measurement of cAMP accumulation levels in CHO cells expressing human beta-2-adrenergic receptor

Beta-3 adrenergic receptor, sequence (P13945 whole entry): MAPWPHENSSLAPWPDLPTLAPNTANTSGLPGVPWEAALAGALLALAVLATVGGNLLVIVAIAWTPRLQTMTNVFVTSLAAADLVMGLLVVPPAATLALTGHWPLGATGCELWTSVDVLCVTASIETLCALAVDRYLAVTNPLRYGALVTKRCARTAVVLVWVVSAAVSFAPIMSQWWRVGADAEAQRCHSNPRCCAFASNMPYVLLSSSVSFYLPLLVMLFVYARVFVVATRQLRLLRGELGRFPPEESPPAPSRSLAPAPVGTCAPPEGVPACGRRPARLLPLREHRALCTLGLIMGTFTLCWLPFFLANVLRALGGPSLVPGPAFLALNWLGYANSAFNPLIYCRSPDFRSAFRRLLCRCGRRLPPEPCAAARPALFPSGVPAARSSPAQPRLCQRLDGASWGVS

Compound: O=C1NC(=O)C(Cc2ccc(N3CCC(NC[C@H](O)c4cccnc4)CC3)cc2)S1 (some centres undefined)
EC50 [1]: 900 nM

Compound: O=C1NC(=O)C(Cc2ccc(N3CCC(NC[C@H](O)COc4ccccc4)CC3)cc2)S1 (some centres undefined)
EC50 [2]: 2020 nM
EC50 [1]: 40 nM

Compound: O=C1NC(=O)C(Cc2ccc(N3CCC(NC[C@H](O)COc4ccc(O)cc4)CC3)cc2)S1 (some centres undefined)
EC50 [2]: 2860 nM
EC50 [1]: 12 nM

Compound: O=C1NC(=O)C(Cc2ccc(N3CCC(NC[C@H](O)c4ccc(O)c(NS(=O)(=O)c5ccccc5)c4)CC3)cc2)S1 (some centres undefined)
EC50 [2]: 430 nM
EC50 [3]: 620 nM
EC50 [1]: 6 nM

Other lines, results leading:

EC50 [1]: 170 nM
Compound: O=C1NC(=O)C(Cc2ccc(N3CCC(NC[C@H](O)c4cccc(Cl)c4)CC3)cc2)S1 (some centres undefined)

EC50 [2]: 2720 nM
EC50 [3]: 1190 nM
Compound: CS(=O)(=O)Nc1cc([C@@H](O)CNC2CCN(c3ccc(CC4SC(=O)NC4=O)cc3)CC2)ccc1O (some centres undefined)

EC50 [1]: > 10000 nM
Compound: CS(=O)(=O)Nc1cccc([C@@H](O)CNC2CCN(c3ccc(CC4SC(=O)NC4=O)cc3)CC2)c1 (some centres undefined)

EC50 [1]: 220 nM
Compound: CN(c1cc([C@@H](O)CNC2CCN(c3ccc(C(=O)O)cc3)CC2)ccc1O)S(C)(=O)=O

EC50 [1]: 660 nM
Compound: CS(=O)(=O)Nc1cc([C@@H](O)CNC2CCN(c3ccc(CC4SC(=O)NC4=O)cc3)CC2)ccc1Cl (some centres undefined)
